Data as given in patent US20230220480A1, “IRON-SCORE AND IN VITRO METHOD FOR IDENTIFYING HIGH RISK DLBCL SUBJECTS AND THERAPEUTIC USES AND METHODS” (CENTRE NATIONAL DE LA RECHERCHE SCIENTIFIQUE (CNRS), priority 2019, published 2023).
Where two headings read alike, the source gives them in different places.

Assays:
[1] = test system: DLBCL cells; experiment: Ferroptosis, Bodipy-C11 staining and ferrostatin-1 rescue; type: cell-based, human
[2] = test system: OCI-LY3 and DB cell lines
From the text: The inventors further investigated the effect of Iron supplementation on the cell death induced by these treatments. Iron chelators concentrations were chosen according the maximal plasmatic concentration achievable in the patient (Nisbet-Brown et al., 2003).
Chaetocin was used as positive control of ROS production inhibited by GSH (Isham et al., 2007).

[3] = test system: SUDHL-5; experiment: Cell viability assay (CellTiter-Glo, ATP quantification); type: cell-based, human; conditions: SUDHL-5, 96H, cell viability by ATP quantification, read-out: 50% inhibitory concentration (IC50)
Procedure: (§1) FIG. 3: Iron chelators and Ironomycin inhibit DLBCL cell growth DLBCL cells were incubated with different concentrations of iron chelators or vehicle for 96H. Inhibitory concentration 50% (IC50) was calculated with concentration-response curve after treatment with Deferoxamin (A), Deferasirox, (B) and Ironomycin (C). Cell viability was examined using quantification of ATP assay. Data are expressed as mean percentage+/−SEM of at least three independent experiments performed in sixplicate.
(§2) The 16 DLBCL cell lines (U2932, OCI-LY-3, NU-DHL-1, OCI-LY-19, DB, SUDHL4, OCILY1, SUDHL5, DOHH2, SUDHL10, HT, RI-1, SU-DHL-6, NUDUL-1, WSU-DLCL-2 and OCI-LY-7) were purchased from the DSMZ (Leibniz-Institut DSMZ—Deutsche Sammlung von Mikroorganismen und Zellkulturen GmbH, Germany). They were maintained in RPMI-1640 (Gibco, Invitrogen), supplemented with 10% fetal bovine serum (PAA laboratory GmbH) for U2932, SUDHL-4, HT, DOHH2, SUDHL-10, RI-1, WSU-DLCL-2 cell lines, 20% FBS OCI-LY3, DB, SUDHL-5, NUDHL-1, SU-DHL-6, NUDUL-1 cell lines. OCI-LY1 and OCI-LY7 were cultured in IMDM (Gibco, Invitrogen), supplemented with 20% fetal bovine serum and OCI-LY19 was cultured in MEM alpha modified (Gibco, Invitrogen), supplemented with 20% fetal bovine serum. Cultures were maintained at 37° C. in a humidified atmosphere with 5% CO2.
(§3) DLBCL-derived cell lines were cultured for 4 days in 96-well flat-bottom microtiter plates in RPMI 1640 medium, 10% or 20% FCS (control medium) in the presence of various compounds. The number of viable cells in culture was determined using the CellTiter-Glo Luminescent Cell Viability Assay from Promega, Madison, Wis., USA using a Centro LB 960 luminometer (Berthold Technologies, Bad Wildbad, Germany).
(§4) This test is based on quantitation of the intracellular ATP present, which signals the presence of metabolically active cells. Data are expressed as the mean percentage of six replicates, normalized to the untreated control.

[4] = test system: U2932; experiment: as above; type: cell-based, human; conditions: cell viability by ATP quantification, read-out: 50% inhibitory concentration (IC50)
Procedure: as §1, §2, §3, §4

[5] = test system: OCI-LY3; experiment: as above; type: cell-based, human; conditions: cell viability by ATP quantification, read-out: 50% inhibitory concentration (IC50)
Procedure: as §1, §2, §3, §4

[6] = test system: DB; experiment: as above; type: cell-based, human; conditions: cell viability by ATP quantification, read-out: 50% inhibitory concentration (IC50)
Procedure: as §1, §2, §3, §4

Row | Compound | effect on erastin (ferroptosis inductor, positive control) [1] | toxicity in DLBCL cells [1] | effect of iron supplementation on drug-induced apoptosis / cytotoxicity [2] | IC50 ([3]; Homo sapiens, SU-DHL-5, 96 h) [µM] | IC50 [3] [µM] | IC50 ([4]; Homo sapiens, U2932, 96 h) [µM] | IC50 ([4]; U2932, 96H) [µM] | IC50 ([5]; Homo sapiens, OCI-Ly3, 96 h) [µM] | IC50 ([5]; OCI-LY3, 96H) [µM] | IC50 ([6]; 96H) [µM] | IC50 ([6]; Homo sapiens, 96 h) [µM]
1 | CCOC(=O)c1ccc(NC2CCCCC2)c(N)c1 [Ferrostatin, Ferrostatin-1, reference compound] | abrogated the effects of erastin | did not demonstrated significant toxicity | – | – | – | – | – | – | – | – | –
2 | O=C(O)c1ccc(-n2nc(-c3ccccc3O)nc2-c2ccccc2O)cc1 [Deferasirox] | – | – | significantly inhibited | 1.48 | 1.48 | 4.79 | 4.79 | 9.5 | 9.5 | 13.9 | 13.9
3 | CC(=O)N(O)CCCCCNC(=O)CCC(=O)N(O)CCCCCNC(=O)CCC(=O)N(O)CCCCCN [Deferoxamine] | – | – | significantly inhibited | 1.55 | 1.55 | 2.42 | 2.28 | 3.75 | 3.75 | 3.25 | 3.24
